Experimental findings from US20060276385A1, “Anti-inflammatory agents and methods of their use” (priority 2003, published 2006) are described below.

Assay [1] deals with ICAM-1. Kind of assay: ICAM-1 surface expression by FACS analysis in HAEC. To be noted: for effect on OS-induced ICAM-1 expression: HAEC exposed to OS 1 day, PEG-catalase or Tiron included during shear; for BMP4-induced ICAM-1 expression in presence of ROS scavenger: HAEC transfected with BMP4. Type of assay: cell-based, human. As for the experimental part: (§1) Endothelial cells: Mouse aortic endothelial cells (MAEC) were cultured and used at passages 4-8 as described (Cai, H., et al. (2002) J Bio Chem 107, 48311-48317). Human aortic endothelial cells (HAEC) purchased from Clonetics were cultured using EGM-2 bullet kit (Clonetics) and used at passages 4-8. Alternatively, endothelial cells obtained from the thoracic aortas of C57/BL6 control (MAE-wt) and p47^phox-null mice (MAE-p47^−/−) were isolated and cultured as described previously (Hwang, J. et al. (2003) J Biol Chem 278:47291-8), and used between passages 4-10.
(§2) Shear stress studies: Confluent endothelial monolayers grown in 100 mm tissue culture dishes were exposed to an arterial level of uni-directional LS (15 dyn/cm^2) in the growth medium by rotating a Teflon cone (0.5° cone angle) as described previously. To mimic unstable shear conditions in vivo, endothelial cells were exposed to OS with directional changes of flow at 1 Hz cycle (±5 dyn/cm^2) by rotating the cone back-and-forth using a stepping motor (Servo Motor) and a computer program (DC Motor Company, Atlanta, Ga.). In some studies, 5 dyn/cm^2 unidirectional LS was used for comparison to OS (±5 dyn/cm^2).
(§3) Fluorescence activated cytometry sorting (FACS) analysis: Treated cells were dissociated into single cell suspensions using 0.25% trypsin-EDTA and resuspended in a FACS buffer (Hank's buffered solution containing 5% FBS). Aliquots of cell suspensions were incubated with ICAM-1 antibody (R&D Systems) for 20 min on ice, washed twice with FACS buffer, and incubated with secondary antibody (fluorescein-5-isothiocyanate- or phycoerytherin-conjugated, Chemicon) for 20 min on ice in the dark. Then samples were washed again, fixed in 1% paraformaldehyde and analyzed by FACS (Calibur, Becton-Dickinson) using CellQuest software. The fluorescence intensity of ICAM-1 and forward cell scattering of 30,000 cells were measured and the geometric means calculated from histograms were shown. In some studies, HAEC were transfected with either BMP4 cloned in a bi-cistronic pAdTrack CMV vector or an empty vector, both expressing green fluorescent protein (GFP), using Lipofectamine 2000. In these experiments, ICAM-1 expression was measured in the red phycoerytherin channel, while the green channel was used to monitor the […] expression-GFP expression was determined by FACS analysis and fluorescence microscopy (20-30% transfection efficiency). Because expression of GFP was similar among different treatment groups within the same experiment, it was unnecessary to normalize ICAM-1 expression data to GFP level. Human recombinant noggin was purchased from R&D Systems and used in all experiments at 50 ng/ml (Dale, L., and Jones, C. M. (1999) Bioessays 21, 751-760; Zimmerman, L. B., et al. (1996) Cell 86, 599-606; Brunei, L. J., et al. (1998) Science 280, 1455-1457).

Assay [2] has as its system MAEC. The assay is described as follows: Monocyte adhesion: THP-1 monocytes bound to mouse aortic endothelial cells. Type of assay: cell-based. To be noted: for effect on BMP4-induced monocyte adhesion: MAE-wt, BMP4 20 ng/ml 18 hrs, YN1 5 μg/ml last 30 min, PEG-catalase 100 U/ml 18 hrs or Tiron 10 μmol/L 1 hr pre-incubation. As to the method: as §1, §2
(§4) Monocyte Adhesion: Monocyte binding was determined under no-flow conditions using THP-1 monocytes (ATCC) by the method described by Chappel et al (Chappell, D. C., et al. (1998) Circ Res 82, 532-539). Briefly, THP-1 cells (5×10^5 cells/ml) were labeled with a fluorescent dye 2′,7′-bis(carboxyethyl)-5(6)-carboxyfluorescein-AM (BCECF, Molecular Probes) (1 mg/ml) in serum-free RPMI medium for 45 min at 37° C. Following exposure to shear stress or BMP treatments in the presence or absence of noggin or vehicle, the endothelial cells were washed in RPMI medium before adding BCECF-loaded THP-1 cells (1:1 ratio). After a 30 min incubation at 37° C. under no-flow conditions, unbound monocytes were removed by washing the endothelial dishes 5 times with Hank's PBS. Bound monocytes were quantified by either counting the cells under a fluorescent microscope or by measuring the fluorescent intensity of cell lysates by fluorescence spectrophotometry using a plate reader. […] Some studies were performed with MAEC pretreated with 5 μg/ml of mouse-ICAM1 antibody (YN1, Southern Biolechonology) (Kevil, C. G., et al. (2001) Am J Physiol Cell Physiol 281, C1442-1447).
In FIG. 7B, confluent MAE-wt cells were pre-incubated with cell-permeable PEG-catalase (Catalase, 100 U/ml for 18 hrs) or Tiron (10 μmol/L for 1 hr). Cells were then incubated with 20 ng/ml BMP4 or vehicle for additional 18 hrs. The treated cells in 7A and 7B were washed, and fluorescently-labeled THP-1 monocytes were added. Unbound THP-1 cells were washed after 30 min, and bound monocytes were counted with a fluorescence microscope using a 10× objective (5-10 different fields per dish). […] As a positive control, monocyte binding was determined using MAE-wt treated with TNF-α(100 U/ml for 2hrs).

Assay [3] has as its system VCAM-1. Kind of assay: VCAM-1 expression in endothelial cells. Type of assay: cell-based, human. To be noted: HAEC, FACS; TNF-α 100 U/ml for 2 hr as positive control. As for the experimental part: as §3
(§5) HAEC treated with OS, BMP4 or static condition were analyzed by FACS using antibodies specific to VCAM-1 (C) and E-selectin (D) as described in panel A using TNFa (1OOU/ml, for 2 hr) as a positive control.

For assay [4], the system named is MAE-p47−/− cells. The assay is described as follows: Monocyte adhesion to p47phox-null endothelial cells, with or without p47phox transfection. Type of assay: cell-based, mouse. To be noted: MAE-p47−/− cells transfected with p47phox (rescued); BMP4 20 ng/ml or TNF-α 100 U/ml, 18 hrs. As to the method:
as §1, §4
Transfection of p47phox: In some studies MAE-p47^−/− cells were trasnfected withp47phox expression vector or an empty vector as described (Hwang, J. et al. (2003) J Biol Chem278-47291-8).
Next, monocyte adhesion was determined in these cells. […] After 18 hrs, cells were washed and monocyte binding was determined as described in FIG. 7. […]

Assay [5] has as its system E-selectin. The assay is described as follows: E-selectin surface expression by FACS analysis in HAEC. Type of assay: cell-based, human. To be noted: TNF-α 100 U/ml for 2 hr as positive control. As to the method:
Fluorescence activated cytometry sorting (FACS) analysis: Treated cells were dissociated into single cell suspensions using 0.25% trypsin-EDTA and resuspended in a FACS buffer (Hank's buffered solution containing 5% FBS). Aliquots of cell suspensions were incubated with ICAM-1 antibody (R&D Systems) for 20 min on ice, washed twice with FACS buffer, and incubated with secondary antibody (fluorescein-5-isothiocyanate- or phycoerytherin-conjugated, Chemicon) for 20 min on ice in the dark. Then samples were washed again, fixed in 1% paraformaldehyde and analyzed by FACS (Calibur, Becton-Dickinson) using CellQuest software. The fluorescence intensity of ICAM-1 and forward cell scattering of 30,000 cells were measured and the geometric means calculated from histograms were shown. […] In these experiments, ICAM-1 expression was measured in the red phycoerytherin channel, while the green channel was used to monitor the […] expression-GFP expression was determined by FACS analysis and fluorescence microscopy (20-30% transfection efficiency). […]
as §5
For orientation: Flow cytometry measures light scatter and fluorescence of single cells or particles in a stream.

In assay [6] the test system is MAE-wt cells. Kind of assay: H2O2 assay by oxidation of DCF-DA. Type of assay: cell-based, mouse. The following applies: PEG-catalase 100 U/ml for 1 day before and during BMP4 treatment. As for the experimental part: H2O2 assay: Cells grown in 6-well plates were treated with BMP4 or vehicle control for 18 hrs in the presence or absence of cell-permeable polyethylene glycol (PEG)-catalase (100 U/ml). Cells were then washed once with Hepes buffered saline solution (HBSS) followed by incubation with 7.5 μg/ml 2′, 7′-dichlorofluorescein diacetate (DCF-DA, Molecular Probes) in HBSS for 1 hr at 37 C° in the dark. Cells were washed with HBSS, incubated further for an additional 40 min in HBSS, and the DCF fluorescence intensities were measured in a Cytofluor Multi-Well plate reader (excitation at 475 nm and emission at 525 nm).
In addition, BMP4 stimulated production of H2O2 by 70% above control as determined by oxidation of DCF-DA (FIG. 10B). […] The cells were washed, incubated with DCF-DA, and the fluorescent intensities determined by fluorometry. Shown is a mean±SEM (n=3, p<0.05). In this assay, a redox cycling menadione (10 μM) was used as positive control (data not shown).

The subject of assay [7] is MAE-wt cells. Kind of assay: O2− assay by electron spin resonance spectroscopy with CMH spin probe. Type of assay: cell-based, mouse. The following applies: MAE-wt exposed to OS for 1 day, noggin during OS exposure. As to the method: O2^− Assay: O2^− production was determined by electron spin resonance spectroscopy using methoxycarbonyl-2,2,5,5-tetramethyl-pyrrolidine (CMH) as a spin probe in the presence or absence of PEG-superoxide dismutase (PEG-SOD; 50 U/ml) to quantify the SOD-inhibitable portions of CM.
In FIG. 10A immediately following treatment of MAE wt cells with BMP4 (200 ng/ml) for 18 hrs, cells were trypsinized and reconstituted in Krebs-Hepes buffer. Equal number of cells was incubated with a spin trap CMH in the presence or absence of PEG-SOD (50 U/mL). The specific O2^− production was calculated by subtracting SOD-inhibitable portions from total O2^− production as determined by following CM production (mean±SEM, n=3, *p<0.05).

Residues, ends and D or L forms follow the SMILES beside them. *: point of attachment. Cbz = O=C(OCc1ccccc1)*

`O=S(=O)(O)c1cc(O)c(O)c(S(=O)(=O)O)c1` [Tiron, reference compound]: the “effect on OS-induced ICAM-1 expression” value in assay [1] (noggin 50 ng/ml) is “completely prevented”. The “effect on BMP4-induced monocyte adhesion” value in assay [2] is “completely blocked”.
With `CC(C)C[C@@H](C=O)NC(=O)[C@H](CC(C)C)NC(=O)[C@H](CC(C)C)NC(=O)OCc1ccccc1` [MG132, reference compound] (Cbz-Leu-Leu-Leu-aldehyde), the “effect on ICAM-1 expression induced by BMP4” value in assay [1] (HAEC, in the presence of NF-κB translocation inhibitor, inactive peptide or proteosome inhibitor) is on record as “completely prevented”.
TNF-α [reference compound]: the “ICAM-1 expression above control cells” value in assay [1] (HAEC, TNF-α 100 U/ml for 2 hr) lay within 4 to 5 fold. In addition, the “effect on surface expression of VCAM-1” value in assay [3] is on record as “strongly increased”. For the same molecule, the “increase in monocyte adhesion above the control” value in assay [4] is “approximately 4 fold”. For the same molecule, the “effect on surface expression of E-selectin” value in assay [5] was “strongly increased”.
As to `CC(=O)N[C@@H](CS)C(=O)O` [N-Acetyl-cysteine, reference compound], the “BMP4-induced ICAM-1 expression in presence of ROS scavenger” value in assay [1] is listed as 23 % of control.

B1: PEG-catalase: cell-permeable polyethylene glycol-catalase converting H2O2 to H2O, 100 U/ml (protein, UniProt P00432 2-527, looked up)
Catalase: ADNRDPASDQMKHWKEQRAAQKPDVLTTGGGNPVGDKLNSLTVGPRGPLLVQDVVFTDEMAHFDRERIPERVVHAKGAGAFGYFEVTHDITRYSKAKVFEHIGKRTPIAVRFSTVAGESGSADTVRDPRGFAVKFYTEDGNWDLVGNNTPIFFIRDALLFPSFIHSQKRNPQTHLKDPDMVWDFWSLRPESLHQVSFLFSDRGIPDGHRHMNGYGSHTFKLVNANGEAVYCKFHYKTDQGIKNLSVEDAARLAHEDPDYGLRDLFNAIATGNYPSWTLYIQVMTFSEAEIFPFNPFDLTKVWPHGDYPLIPVGKLVLNRNPVNYFAEVEQLAFDPSNMPPGIEPSPDKMLQGRLFAYPDTHRHRLGPNYLQIPVNCPYRARVANYQRDGPMCMMDNQGGAPNYYPNSFSAPEHQPSALEHRTHFSGDVQRFNSANDDNVTQVRTFYLKVLNEEQRKRLCENIAGHLKDAQLFIQKKAVKNFSDVHPEYGSRIQALLDKYNEEKPKNAVHTYVQHGSHLSAREKANL
modifications: PEG conjugated
notes: cell-permeable polyethylene glycol-catalase converting H2O2 to H2O, 100 U/ml
For B1, in assay [1] (noggin 50 ng/ml), the “effect on OS-induced ICAM-1 expression” value is reported as “completely prevented”. Besides, the “BMP4-induced ICAM-1 expression in presence of ROS scavenger” value in assay [1] is on record as 26 % of control. The “effect on BMP4-induced monocyte adhesion” value in assay [2] is “completely blocked”. For the same molecule, in assay [6], the “effect on BMP-dependent H2O2 production” value is “completely blocked”.

B2: noggin (protein, UniProt Q13253 28-232, looked up)
Noggin: QHYLHIRPAPSDNLPLVDLIEHPDPIFDPKEKDLNETLLRSLLGGHYDPGFMATSPPEDRPGGGGGAAGGAEDLAELDQLLRQRPSGAMPSEIKGLEFSEGLAQGKKQRLSKKLRRKLQMWLWSQTFCPVLYAWNDLGSRFWPRYVKVGSCFSKRSCSVPEGMVCKPSKSVHLTVLRWRCQRRGGQRCGWIPIQYPIISECKCSC
notes: natural BMP antagonist
For the molecule B2, the “effect on OS-induced ICAM-1 expression” value in assay [1] (noggin 50 ng/ml) is “completely inhibited”. Further, the “effect on TNF-α-induced ICAM-1 expression” value in assay [1] (HAEC, TNF-α 100 U/ml for 6 hr, noggin 50 ng/ml) is “did not affect”. Moreover, in assay [7], the “effect on OS-induced O2− increase” value is “virtually blocked”. Also, the “effect on OS-induced monocyte adhesion” value in assay [2] (MAEC, OS 24 hr, noggin 50 ng/ml) was “inhibited OS-induced monocyte adhesion”.
